Reference: patent US5369016A, “Peptide amidase and the use thereof” (Forschungszentrum Juelich GmbH, priority 1990, dated 1994)
Read-outs that look alike come from different tables or passages of the source. Peptide text beside a SMILES is read from it. * marks the point of attachment. pNA = O=[N+]([O-])c1ccc(N*)cc1; Cbz = O=C(OCc1ccccc1)*; Boc = CC(C)(C)OC(=O)*

How the values were obtained:
peptide amidase [1] = assay: Enzymatic reaction of peptide amides with a chain length of greater than three amino acids; type: biochemical, orange
Procedure: Enzymatic reaction of peptide amides with a chain length of greater than
three amino acids. Reaction conditions: 10 mM substrate, 40 μg/ml
50 mM tris/HCL, pH 7.0, temp. 30° C.

peptide amidase [2] = assay: Enzymatic cleavage of N-terminal protected dipeptide amides; type: biochemical, orange
Source text: The results in Table 7 were obtained using an eluent: TBA/acetonitrile 60/40 (% volume)

[3] = test system: peptide amidase from orange flavedo; assay: Cleavage of amides of amino acids (TLC); type: biochemical; set-up: scale not given here; conditions: 50 μg/ml; 10 mM substrate; 24 h; 0.05M KPi, pH 7.5; * = slight traces
Procedure: A DEAE-purified enzyme was employed in these experiments (volumetric activity: 40 U/ml for the substrate For-Tyr-Arg-NH2).
from orange flavedo. (50 μg/ml; 10 mM substrate)
Eluent: pyridine/butanol/AcOH/H2 O (12:15:3:5).
Reaction: 24 h, RT; 0.05M KPi, pH 7.5., 30° C.
Blank sample without enzyme.

peptide amidase [4] = test system: peptide amidase
Procedure: A reaction mixture comprising the following constituents was employed:
850 μl of the particular solvent/tris (50 mM; pH 7.5) mixture
100 μl of substrate (10 mM Z-Gly-Tyr-NH2)
50 μl of amidase (40 μg of protein)
The reaction was initiated by the addition of the enzyme to prevent inactivation of the enzyme prior to the reaction.

peptide amidase [5] = assay: Deamidation of N-terminal protected amino acid amides; type: biochemical, orange; conditions: for Spec. Activity / Yield: 10 mM substrate, 50 μg.ml peptide amidase, pH 7.0, 30° C.; for Spec. Activity: 50 mM tris/HCl
Procedure: Separating conditions according to Example 3A were employed.
Eluent: TBA/acetonitrile 65:35 (90:10 for Bz-Arg-NH2)
Reaction conditions: 10 mM substrate; 50 μg.ml peptide amidase; 50 mM
tris/HCl; pH 7.0; Temperature 30° C.

peptide amidase [6] = assay: Effect of the acetone concentration on kinetic parameters Km and Vmax; type: biochemical, orange
Procedure: Substrate: Z--Gly--Tyr--NH2; 40 μg/ml peptide amidase in 50 mM

peptide amidase [7] = assay: Effect of chelating agents, metal cations and enzyme inhibitors on peptide amidase activity; type: biochemical, navel oranges
Procedure: The effect of the following inhibitors on peptide amidase activity was determined under standard conditions according to the methods described in Example 1. The inhibitor concentration was 10 mM in each case.

[8] = peptide amidase, 6 h, 10000 µM, pH 7
[9] = 89.1% solvent, substrate Z-Gly-Tyr-NH2
[10] = peptide amidase, pH 7, 10000 µM
[11] = inhibitor 0.01 m (10 mM), standard conditions of Example 1
[12] = enzymatic cleavage of the C-terminal amide
[13] = 10 mM substrate, 40 μg/ml peptide amidase, 50 mM tris/HCL, pH 7.0, 30° C., 360 min

CC(C)C[C@H](NC(=O)CNC(=O)CNC(=O)OCc1ccccc1)C(N)=O [Z--Gly--Gly--Leu--NH2] (Cbz-Gly-Gly-Leu-NH2)
Yield (peptide amidase [1]; [8]): 100 %/6 h
Yield (peptide amidase [2]; peptide amidase): 100%

CC[C@H](C)[C@H](N)C(N)=O [Ile--NH2]
Reaction [3]: 0

CC(C)C[C@H](NC(=O)[C@@H]1CCCN1C(=O)OCc1ccccc1)C(=O)NCC(N)=O [Z--Pro--Leu--Gly--NH2] (Cbz-Pro-Leu-Gly-NH2)
Yield (peptide amidase [1]; [8]): 100 %/6 h
Yield (peptide amidase [2]; peptide amidase): 90%

CCO [Ethanol]
Activity (peptide amidase [4]; 5.0% solvent): 1.269 U/mg
Activity (peptide amidase [4]; 18.0% solvent): 0.938 U/mg
Activity (peptide amidase [4]; 27.0% solvent): 0.814 U/mg
Activity (peptide amidase [4]; 36.0% solvent): 0.613 U/mg
Activity (peptide amidase [4]; 45.0% solvent): 0.448 U/mg
Activity (peptide amidase [4]; 54.0% solvent): 0.284 U/mg
Activity (peptide amidase [4]; 63.0% solvent): 0.204 U/mg
Activity (peptide amidase [4]; 72.0% solvent): 0.149 U/mg
Activity (peptide amidase [4]; [9]): 0.083 U/mg

N=C(N)NCCC[C@H](NC(=O)c1ccccc1)C(N)=O [Bz--Arg--NH2]
Spec. Activity (peptide amidase [5]): 4.39 U/mg
Yield (peptide amidase [5]; 28 min): 61.6 %/28 min
Yield (peptide amidase [5]; 120 min): 100 %/2 h
Yield after 45 min (peptide amidase [5]; [10]): 73.5%
variation of Km and Vmax with solvent concentration (in words) (peptide amidase [6]): did not vary significantly

NC(=O)CI [Iodoacetamide]
% activity remaining (peptide amidase [7]; [11]): 99%

Bz--Tyr--Leu--NH2
Yield (peptide amidase [2]; [12]): 100%

C[C@@H](O)[C@H](N)C(N)=O [Thr--NH2]
Reaction [3]: 0

CSCC[C@H](N)C(N)=O [Met--NH2]
Reaction [3]: 0

N=C(N)NCCC[C@H](NC(=O)[C@@H]1CCCN1C(=O)OCc1ccccc1)C(=O)NCC(N)=O [Z--Pro--Arg--Gly--NH2] (Cbz-Pro-Arg-Gly-NH2)
Yield (peptide amidase [1]; [8]): 100 %/6 h

NC(=O)[C@@H](N)Cc1ccc(O)cc1 [Tyr--NH2]
Reaction [3]: 0

N=C(N)NCCC[C@H](N)C(N)=O [Arg--NH2]
Reaction [3]: 0

Bz--Tyr--Val--NH2
Yield (peptide amidase [2]; [12]): 100%

CC(C)C[C@H](NC(=O)CNC(c1ccccc1)(c1ccccc1)c1ccccc1)C(=O)N[C@H](C(N)=O)C(C)C [Trt--Gly--Leu--Val--NH2]
Yield (peptide amidase [1]; [8]): 100 %/6 h
Yield (peptide amidase [2]; peptide amidase): 95%

O[C@H](CS)[C@H](O)CS (racemic) [Dithiothreitol]
% activity remaining (peptide amidase [7]; [11]): 100%

NCCCC[C@H](N)C(N)=O [Lys--NH2]
Reaction [3]: 0

CCCO [Propanol]
Activity (peptide amidase [4]; 5.0% solvent): 0.927 U/mg
Activity (peptide amidase [4]; 18.0% solvent): 0.772 U/mg
Activity (peptide amidase [4]; 27.0% solvent): 0.474 U/mg
Activity (peptide amidase [4]; 36.0% solvent): 0.342 U/mg
Activity (peptide amidase [4]; 45.0% solvent): 0.12 U/mg
Activity (peptide amidase [4]; 54.0% solvent): 0.1 U/mg
Activity (peptide amidase [4]; 63.0% solvent): 0.1 U/mg
Activity (peptide amidase [4]; 72.0% solvent): 0.1 U/mg
Activity (peptide amidase [4]; [9]): 0.05 U/mg

Bz--Tyr--Lys--NH2
Yield (peptide amidase [2]; [12]): 100%

NC(=O)[C@H](Cc1ccc(O)cc1)NC(=O)CNC(=O)OCc1ccccc1 [Z--Gly--Tyr--NH2, benzyloxycarbonyl-glycyltyrosinamide] (Cbz-Gly-Tyr-NH2)
Yield (peptide amidase [2]; peptide amidase): 100%
Vmax (peptide amidase [6]; 5% acetone): 2.93 U/mg
Km (peptide amidase [6]; 5% acetone, 40 μg/ml peptide amidase, pH 7.5): 0.063 mM
Km (peptide amidase [6]; 20% acetone): 1.6 mM
Vmax (peptide amidase [6]; 20% acetone): 2.54 U/mg
Km (peptide amidase [6]; 40% acetone): 5.5 mM
Vmax (peptide amidase [6]; 40% acetone): 2.57 U/mg
Km (peptide amidase [6]; 60% acetone): 19.6 mM
Vmax (peptide amidase [6]; 60% acetone): 2.58 U/mg

CC(C)[C@H](NC(=O)OCc1ccccc1)C(=O)NCC(=O)N[C@@H](C)C(=O)N1CCC[C@H]1C(N)=O [Z--Val--Gly--Ala--Pro--NH2] (Cbz-VGAP-NH2)
Yield (peptide amidase [1]; [8]): 0 %/6 h

O=C(O)CN(CCN(CC(=O)O)CC(=O)O)CC(=O)O [EDTA, ethylenedinitrilotetraacetic acid]
% activity remaining (peptide amidase [7]): 92%

CC(C)C[C@@H](N)C(N)=O [D-Leu--NH2]
Reaction [3]: 0

NC(=O)[C@@H](N)Cc1ccccc1 [Phe--NH2]
Reaction [3]: 0

NC(=O)[C@@H](N)Cc1c[nH]c2ccccc12 [Trp--NH2]
Reaction [3]: 0

N=C(N)NCCC[C@H](NC(=O)OCc1ccccc1)C(=O)N[C@@H](CCCNC(=N)N)C(=O)Nc1ccc([N+](=O)[O-])cc1 [Z--Arg--Arg--pNa, reference compound] (Cbz-Arg-Arg-pNA)
reaction (in words) (peptide amidase [2]; comparison, 12 h): No reaction in 12 h

NNC(N)=O [Semicarbazide]
% activity remaining (peptide amidase [7]; [11]): 102%

C[C@@H]1C[C@@H]([C@H](O)CC2CC(=O)NC(=O)C2)C(=O)[C@@H](C)C1 [Cycloheximide]
% activity remaining (peptide amidase [7]; [11]): 98%

Bz--Tyr--Ile--NH2
Yield (peptide amidase [2]; [12]): 100%

NC(=O)[C@H](Cc1c[nH]c2ccccc12)NC(=O)OCc1ccccc1 [Z--Trp--NH2]
Spec. Activity (peptide amidase [5]): 0.37 U/mg
Yield (peptide amidase [5]; 28 min): 5.16 %/28 min
Yield (peptide amidase [5]; 120 min): 23.5 %/2 h
Yield after 45 min (peptide amidase [5]; [10]): 14.9%

Mal--Tyr--Arg--NH2
Yield (peptide amidase [2]; [12]): 100%

Boc--cys(bzl)--Pro--Arg--Gly--NH2
Yield (peptide amidase [1]; [13]): 90 %/6 h

N=C(N)NCCC[C@H](NC(=O)[C@@H]1CCCN1)C(=O)NCC(N)=O [H--Pro--Arg--Gly--NH2] (H-Pro-Arg-Gly-NH2)
Yield (peptide amidase [1]; [8]): 100 %/6 h

O=C(O)c1cc[c]([Hg][OH])cc1 [p-OHMBA, parahydroxymercuribenzoate]
% activity remaining (peptide amidase [7]; [11]): 96%

O=S(=O)(F)Cc1ccccc1 [PMSF, phenylmethanesulfonyl fluoride]
inhibition of peptide amidase (in words) (peptide amidase [7]): significantly inhibited
% activity remaining (peptide amidase [7]; [11]): 55%
inhibition of peptide amidase (in words) (peptide amidase [7]; listed as phenylmethanesulfonyl fluoride): weak inhibition

Luteinizing Hormone Releasing Factor [LHRH]
Yield (peptide amidase [1]; [13]): 90 %/6 h

Bz--Tyr--Ala--NH2
Yield (peptide amidase [2]; [12]): 65%

Bz--Tyr--Thr--NH2
Yield (peptide amidase [2]; [12]): 63%

CC(C)=O [Acetone]
Activity (peptide amidase [4]; 5.0% solvent): 2.011 U/mg
Activity (peptide amidase [4]; 18.0% solvent): 1.863 U/mg
Activity (peptide amidase [4]; 27.0% solvent): 1.748 U/mg
Activity (peptide amidase [4]; 36.0% solvent): 1.527 U/mg
Activity (peptide amidase [4]; 45.0% solvent): 1.38 U/mg
Activity (peptide amidase [4]; 72.0% solvent): 0.585 U/mg
Activity (peptide amidase [4]; [9]): 0.224 U/mg

CC(C)[C@H](N)C(N)=O [Val--NH2]
Reaction [3]: 0

NC(=O)[C@H](Cc1ccccc1)NC(=O)[C@@H]1CCCN1C(=O)OCc1ccccc1 [Z--Pro--Phe--NH2] (Cbz-Pro-Phe-NH2)
Yield (peptide amidase [2]; peptide amidase): 100%

CCN1C(=O)C=CC1=O [EMI, ethylmaleimide]
% activity remaining (peptide amidase [7]; [11]): 100%

NC(=O)[C@H](Cc1ccccc1)NC(=O)CNC(=O)OCc1ccccc1 [Z--Gly--Phe--NH2] (Cbz-Gly-Phe-NH2)
Yield (peptide amidase [2]; peptide amidase): 100%

NC(=O)[C@H](N)Cc1ccccc1 [D-Phe--NH2]
Reaction [3]: 0

C[C@H](N)C(N)=O [Ala--NH2]
Reaction [3]: 0

CC(C)C[C@H](N)C(N)=O [Leu--NH2]
Reaction [3]: 0

[Cl][Hg][Cl] [HgCl2]
% activity remaining (peptide amidase [7]; [11]): 95%

C[C@@H](N)C(N)=O [D-Ala--NH2]
Reaction [3]: 0

NCC(=O)O [Glycine]
% activity remaining (peptide amidase [7]): 99%

Bz--Tyr--Trp--NH2
Yield (peptide amidase [2]; [12]): 39%

CC(C)C[C@H](NC(=O)OC(C)(C)C)C(=O)N[C@H](C(N)=O)C(C)C [Boc--Leu--Val--NH2] (Boc-Leu-Val-NH2)
Yield (peptide amidase [2]; peptide amidase): 20%

NC(=O)[C@H](Cc1ccc(O)cc1)NC(=O)c1ccccc1 [Bz--Tyr--NH2]
Yield (peptide amidase [2]; [12]): 100%
Spec. Activity (peptide amidase [5]): 6.34 U/mg
Yield (peptide amidase [5]; 28 min): 88.7 %/28 min
Yield (peptide amidase [5]; 120 min): 100 %/2 h
yield after 15 minutes (peptide amidase [5]; [10]): 47.6%

CC(=O)N[C@@H](Cc1c[nH]c2ccccc12)C(N)=O [Ac--Trp--NH2]
Spec. Activity (peptide amidase [5]): 2.32 U/mg
Yield (peptide amidase [5]; 28 min): 32.4 %/28 min
Yield (peptide amidase [5]; 120 min): 100 %/2 h
Yield after 45 min (peptide amidase [5]; [10]): 48.9%

NC(=O)[C@@H](N)Cc1cnc[nH]1 [His--NH2]
Reaction [3]: 0

[N-]=[N+]=[N-].[Na+] [NaN3]
% activity remaining (peptide amidase [7]; [11]): 100%

Bz--Tyr--Ser--NH2
Yield (peptide amidase [2]; [12]): 41%

CC(C)C[C@H](NC(=O)[C@H](Cc1ccccc1)NC(=O)CNC(=O)CNC(=O)[C@@H](N)Cc1ccc(O)cc1)C(N)=O [H--Tyr--Gly--Gly--Phe--Leu--NH2, Leu-Enkephalin]
Yield (peptide amidase [1]; [13]): 100 %/6 h

NC(=O)[C@@H](N)CO [Ser--NH2]
Reaction [3]: 0

N[C@@H]1CON=C1O [Cycloserine]
% activity remaining (peptide amidase [7]; [11]): 100%

N=C(N)NCCC[C@H](NC(=O)[C@H](Cc1ccc(O)cc1)NC=O)C(N)=O [For--Tyr--Arg--NH2]
Yield (peptide amidase [2]; peptide amidase): 100%
